Literature values in patent US20240366754A1, “PHARMACEUTICAL COMPOSITIONS FOR DELIVERY OF VIRAL ANTIGENS AND RELATED METHODS” (BioNTech SE, priority 2021, published 2024).
Entries after “also recorded” stand apart in the source; their conditions may differ. Read-outs that look alike come from different tables or passages of the source.

How the values were obtained:
norovirus = conditions: in vivo

Row | Structure (SMILES) | Most common adverse effects (Intravenous formulations) | Most common adverse effects (Oral formulations) | effect on norovirus illness (norovirus)
1 | Nc1nc2c(ncn2COCCO)c(=O)[nH]1 [acyclovir] | phlebitis, acute renal; also recorded: failure, nausea,; also recorded: vomiting, rash | malaise, headache,; also recorded: nausea, vomiting | –
2 | CC(=O)OCC(CCn1cnc2cnc(N)nc21)COC(C)=O [famciclovir] | – | headache, nausea,; also recorded: fatigue, diarrhea | –
3 | O=C(O)P(=O)(O)O [foscarnet] | fever, headache,; also recorded: renal dysfunction,; also recorded: electrolyte; also recorded: abnormalities,; also recorded: nausea, vomiting; also recorded: diarrhea, anemia,; also recorded: granulocytopenia | – | –
4 | CC(=O)Oc1ccccc1C(=O)Nc1ncc([N+](=O)[O-])s1 [nitazoxanide] | – | – | reduce the duration of illness
5 | CC(C)[C@H](N)C(=O)OCCOCn1cnc2c(=O)[nH]c(N)nc21 [valacyclovir] | – | headache, nausea,; also recorded: abdominal pain | –
